Assay results published in patent US7803779B2, “Drugs for the treatment and/or prophylaxis of gastroparesis symptom” (Chugai Seiyaku Kabushiki Kaisha, priority 2005, dated 2010).
“Also recorded” adds a separate entry of the source.

Experiments:
[1] = tested on: diabetic patients presenting with gastroparesis symptom despite a normal level of gastric emptying; assay: Effect of GM-611 on gastroparesis symptom in diabetic patients with a normal level of gastric emptying (Example 1, FIG. 1); type: in vivo, human
Description: FIG. 1, which is titled “Effect of GM-611 on gastroparesis symptom in diabetic patients with a normal level of gastric emptying”, is a graph showing results of evaluating the percentage of responders who were in the patients the gastroparesis symptom regardless a normal level of gastric emptying and who perceived an adequate relief of gastroparesis symptom by the administration of the therapeutic and/or preventive agent against gastroparesis symptom according to the present invention; M1R (month 1 responder) refers to patients who had adequate relief in at least 50% of weekly evaluations for the first one month of medication and CR (complete responder) refers to patients who were evaluated as monthly responder for three consecutive months.
(§1) In the following examples, GM-611 (8,9-didehydro-N-demethyl-9-deoxo-6,11-dideoxy-6,9-epoxy-12-O-methyl-N-(1-methylethyl)-11-oxoerythromycin,(2E)-2-butenedioate) was used as a compound of the formula (1). This compound was synthesized in the laboratories of Chugai Pharmaceutical Co., Ltd. as described in WO02/18403 and WO02/30943. To evaluate the efficacy of GM-611 in improving subjective gastroparesis symptom, diabetic patients on insulin therapy were selected. Since the analyses in the following examples were after the key-open of clinical trial, P<0.01 in a two-tail test was considered to show a significant effect and P<0.1 a tendency.
In order to assess the efficacy of GM-611 in improving subjective gastroparesis symptom, diabetic patients who were presenting with gastroparesis symptom despite a normal level of gastric emptying were selected. […] All assessment in the subjective gastroparesis symptom was evaluated by an electric diary by phone. Starting one week after the initiation of medication, the patients were interviewed every week and asked whether in the past 7 days, you have had adequate relief of your gastroparesis symptoms, and the yes/no answers were recorded. […] Patients who were evaluated as monthly responder for three consecutive months. were assigned as “complete responders” (CR).

[2] = tested on: patients of type 1 diabetes with gastroparesis symptom and a normal level of gastric emptying; assay: Effect of GM-611 on gastroparesis symptom in patients of type 1 diabetes with a normal level of gastric emptying (Example 2, FIG. 2); type: in vivo, human; conditions: type 1 diabetes patients only
Description: FIG. 2, which is titled “Effect of GM-611 on gastroparesis symptom in patients of type 1 diabetes with a normal level of gastric emptying”, is a graph showing results of evaluating the percentage of responders who were in the patients of type 1 diabetes with the gastroparesis symptom regardless a normal level of gastric emptying and who perceived an adequate relief of gastroparesis symptom by the administration of the therapeutic and/or preventive agent against gastroparesis symptom according to the present invention; M1R (month 1 responder) refers to patients who had adequate relief in at least 50% of weekly evaluations for the first one month of medication and CR (complete responder) refers to patients who were evaluated as monthly responder for three consecutive months.
as §1
(§2) In order to assess the efficacy of GM-611 in improving subjective gastroparesis symptom, diabetic patients who were presenting with gastroparesis symptom despite a normal level of gastric emptying were selected. […] All assessment in the subjective gastroparesis symptom was evaluated by an electric diary by phone. Starting one week after the initiation of medication, the patients were interviewed every week and asked whether in the past 7 days, you have had adequate relief of your gastroparesis symptoms, and the yes/no answers were recorded. […] Patients who were evaluated as monthly responder for three consecutive months. were assigned as “complete responders” (CR). […]

[3] = tested on: diabetic patients with good glycemic control (hemoglobin A1C no more than 8%) with a normal level of gastric emptying; assay: Effect of GM-611 on gastroparesis symptom in diabetic patients of good glycemic control with a normal level of gastric emptying (Example 3, FIG. 3); type: in vivo, human
Description: FIG. 3, which is titled “Effect of GM-611 on gastroparesis symptom in diabetic patients of good glycemic control with a normal level of gastric emptying”, is a graph showing results of evaluating the percentage of responders who were in the diabetic patients with good glycemic control with the gastroparesis symptom regardless a normal level of gastric emptying and who perceived an adequate relief of gastroparesis symptom by the administration of the therapeutic and/or preventive agent against gastroparesis symptom according to the present invention; M1R (month 1 responder) refers to patients who had adequate relief in at least 50% of weekly evaluations for the first one month of medication and CR (complete responder) refers to patients who were evaluated as monthly responder for three consecutive months.
as §1, with “Since the analyses in the following examples were after the key-open of clinical trial, P<0.01 in a two-tail test was considered to show a significant effect and P<0.1 a tendency.” left out
as §2

[4] = tested on: diabetic patients with a longer-than-ten-year history of diabetes with a normal level of gastric emptying; assay: Effect of GM-611 on gastroparesis symptom in diabetic patients of diabetic history longer than 10 years with a normal level of gastric emptying (Example 4, FIG. 4); type: in vivo, human
Description: FIG. 4, which is titled “Effect of GM-611 on gastroparesis symptom in diabetic patients of diabetic history longer than 10 years with a normal level of gastric emptying”, is a graph showing results of evaluating the percentage of responders who were in the diabetic patients of diabetic history longer than 10 years with the gastroparesis symptom regardless a normal level of gastric emptying and who perceived an adequate relief of gastroparesis symptom by the administration of the therapeutic and/or preventive agent against gastroparesis symptom according to the present invention; M1R (month 1 responder) refers to patients who had adequate relief in at least 50% of weekly evaluations for the first one month of medication and CR (complete responder) refers to patients who were evaluated as monthly responder for three consecutive months.
as §1, with “Since the analyses in the following examples were after the key-open of clinical trial, P<0.01 in a two-tail test was considered to show a significant effect and P<0.1 a tendency.” left out
as §2

[5] = tested on: patients with gastroparesis; conditions: 383 patients, both delayed and non-delayed gastric emptying; cited from earlier work
gastric emptying = conditions: clinical; cited from earlier work

SMILES | dose dependency of efficacy [1] | P, CR rate in whole GM-611 treated group vs. placebo group by chi-square test ([1]; complete responders, 3 months) | percentage of responders who had adequate relief in gastroparesis symptom vs placebo group ([1]; twice daily at meals for 3 months, both GM-611 groups) | P, CR rate in whole GM-611 treated group vs. placebo group by chi-square test [2] | dose dependency of efficacy [2] | efficacy in improving the symptom ([2]; normal gastric emptying) | P, CR rate in whole GM-611 treated group vs. placebo group by chi-square test [3] | dose dependency of efficacy [3] | efficacy in improving the symptom [3] | P, CR rate in whole GM-611 treated group vs. placebo group by chi-square test [4] | dose dependency of efficacy [4] | efficacy in improving the symptom [4] | efficacy on gastroparesis symptom [5] | acceleration of gastric emptying (gastric emptying)
CC[C@H]1OC(=O)[C@H](C)[C@@H](O[C@H]2C[C@@](C)(OC)[C@@H](O)[C@H](C)O2)[C@H](C)[C@@H](O[C@@H]2O[C@H](C)C[C@H](N(C)C(C)C)[C@H]2O)[C@@]2(C)CC(C)=C(O2)[C@H](C)C(=O)[C@]1(C)OC.O=C(O)/C=C/C(=O)O [GM-611, 8,9-didehydro-N-demethyl-9-deoxo-6,11-dideoxy-6,9-epoxy-12-O-methyl-N-(1-methylethyl)-11-oxoerythromycin,(2E)-2-butenedioate] | no apparent dose dependency | 0.025 | greater than those in the placebo group; also recorded: only a tendency to improve the symptom | 0.001 | dose-dependent | significant | 0.010 | dose-dependent manner | significant efficacy in improving the symptom | 0.001 | dose-dependent manner | significant efficacy in improving the symptom | – | –
CC[C@H]1OC(=O)[C@H](C)[C@@H](O[C@H]2C[C@@](C)(OC)C[C@H](C)O2)[C@H](C)[C@@H](O[C@@H]2O[C@H](C)C[C@H](N(C)CC)[C@H]2O)[C@@]2(C)CC(C)=C(O2)[C@H](C)[C@@H](O)[C@H]1C [ABT-229] | – | – | – | – | – | – | – | – | – | – | – | – | no efficacy | capable of accelerating gastric emptying
